The results in this text go back to paper PMC7522027 (Disease Models & Mechanisms, 2020).

Where “and” joins values, the source holds several entries; their conditions need not be identical. Equal values may be shown once.

One assay has as its target T1, TGFB-R1 (ALK5) (Homo sapiens, UniProt P36897).
T1 construct: purchased ProQinase GmbH (Freiburg, Germany); host or cells: bacteria (so in the source)
T1 sequence (P36897 34-503): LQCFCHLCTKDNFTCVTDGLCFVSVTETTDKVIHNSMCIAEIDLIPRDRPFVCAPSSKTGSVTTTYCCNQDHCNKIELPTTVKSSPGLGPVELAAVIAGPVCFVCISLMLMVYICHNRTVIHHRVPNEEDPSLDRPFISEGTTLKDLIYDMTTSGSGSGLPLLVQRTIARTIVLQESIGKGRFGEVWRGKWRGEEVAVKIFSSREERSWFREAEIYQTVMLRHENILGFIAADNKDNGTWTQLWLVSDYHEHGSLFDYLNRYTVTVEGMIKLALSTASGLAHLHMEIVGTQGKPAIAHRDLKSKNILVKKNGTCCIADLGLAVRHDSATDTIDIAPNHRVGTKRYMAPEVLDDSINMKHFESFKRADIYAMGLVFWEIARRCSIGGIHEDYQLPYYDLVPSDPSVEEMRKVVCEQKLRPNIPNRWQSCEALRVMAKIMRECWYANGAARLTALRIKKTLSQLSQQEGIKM
The assay can be described thus: radiometric protein kinase assay, ALK5. It counts as biochemical. The note with it: [ATP] = 1 μM; Fig. 7K.

Assay [1] has as its target T2, caALK2 (Homo sapiens, UniProt Q04771, Q207D).
T2 construct: expressed in transfected cells; host or cells: HEK 293T
T2 sequence (Q04771 21-509 Q207D): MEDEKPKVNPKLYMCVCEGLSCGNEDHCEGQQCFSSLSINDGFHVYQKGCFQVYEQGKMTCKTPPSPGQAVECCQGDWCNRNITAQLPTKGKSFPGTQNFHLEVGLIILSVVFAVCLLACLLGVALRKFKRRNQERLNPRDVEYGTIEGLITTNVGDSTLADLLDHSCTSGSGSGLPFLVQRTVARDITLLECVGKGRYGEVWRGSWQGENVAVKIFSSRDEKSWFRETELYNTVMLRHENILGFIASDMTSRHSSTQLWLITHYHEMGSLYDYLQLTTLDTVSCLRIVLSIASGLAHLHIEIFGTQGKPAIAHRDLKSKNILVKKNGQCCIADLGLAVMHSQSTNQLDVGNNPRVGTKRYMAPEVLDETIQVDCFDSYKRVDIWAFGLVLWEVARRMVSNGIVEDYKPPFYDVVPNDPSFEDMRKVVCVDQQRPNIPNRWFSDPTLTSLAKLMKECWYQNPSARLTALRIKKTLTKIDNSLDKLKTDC
The assay can be described thus: caALK2-induced SMAD1/5 phosphorylation in HEK 293T cells. It counts as cell-based. Conditions: cercosporamide 1-10 µM, LDN193189 200 nM. An excerpt:
(§1) HepG2 or HEK 293T cells were lysed in Laemmli sample buffer. Proteins were separated by sodium dodecyl sulfate polyacrylamide gel electrophoresis (SDS-PAGE) and transferred onto […] polyvinylidene difluoride (PVDF) membrane (IPVH00010, Merck Millipore). Membranes were blocked using 5% non-fat dry milk in Tris-buffered saline with 0.1% Tween 20 (655204, Merck Millipore) and probed with the respective primary and secondary antibodies. The signal was detected using Clarity™ Western ECL Substrate (1705060, Bio-Rad) and ChemiDoc Imaging System (17001402, Bio-Rad). The antibodies used for immunoblotting were raised against the following proteins: phospho-SMAD1/5/8 ([Persson et al., 1998]; 1:1000), SMAD1 (Cell Signaling Technology, #6944; 1:1000), GAPDH (Merck Millipore, #G8795; 1:5000) and hemagglutinin (HA; Roche, #12CA5; 1:1000).
(§2) For experiments with the caALK type I receptor constructs, HEK 293T cells were seeded in 24-well plates at ∼90% confluency and transfected with the DNA expression constructs in the presence of PEI. Thirty hours after transfection, the cells were added to serum-starved medium and treated with compounds for 16 h (overnight). Subsequently, the cells were washed with PBS and lysed in Laemmli sample buffer. […]

For the next assay, the system named is zebrafish embryos. The assay can be described thus: in situ hybridization with krox20/myod probes in treated zebrafish embryos. Format: in vivo, zebrafish (Danio rerio). The note with it: 750 nM from 6 hpf, fixed at 12 hpf. How it is done: Embryos were treated from approximately 6 hpf until 12 hpf when they were fixed in 4% paraformaldehyde overnight. In situ hybridization was performed using krox20 and myod anti-sense RNA probes as described elsewhere ([Thisse and Thisse, 2008]).

Assay [2] concerns BMP2-induced SMAD1/5 phosphorylation. The assay can be described thus: BMP2-induced SMAD1/5 phosphorylation in HepG2 cells (immunoblot). Format: cell-based, human. Conditions: HepG2, BMP2 50 ng/ml; high concentrations (range 100 nM to 10 µM). How it is done:
For BMP stimulation, the HepG2 cells (∼50% confluency) were starved on serum-free medium for 6 h. Subsequently, prior to the addition of BMP ligands, the cells were treated with compound for 30 min. Next, the cells were stimulated with BMP2 (50 ng/ml) or BMP6 (50 ng/ml) for 45 min. The cells were then washed with PBS and lysed in Laemmli sample buffer for western blot analysis.
as §1

For the next assay, the target named is T3, caALK3 (Homo sapiens, UniProt P36894, Q233D).
T3 construct: expressed in transfected cells; host or cells: HEK 293T
T3 sequence (P36894 24-532 Q233D): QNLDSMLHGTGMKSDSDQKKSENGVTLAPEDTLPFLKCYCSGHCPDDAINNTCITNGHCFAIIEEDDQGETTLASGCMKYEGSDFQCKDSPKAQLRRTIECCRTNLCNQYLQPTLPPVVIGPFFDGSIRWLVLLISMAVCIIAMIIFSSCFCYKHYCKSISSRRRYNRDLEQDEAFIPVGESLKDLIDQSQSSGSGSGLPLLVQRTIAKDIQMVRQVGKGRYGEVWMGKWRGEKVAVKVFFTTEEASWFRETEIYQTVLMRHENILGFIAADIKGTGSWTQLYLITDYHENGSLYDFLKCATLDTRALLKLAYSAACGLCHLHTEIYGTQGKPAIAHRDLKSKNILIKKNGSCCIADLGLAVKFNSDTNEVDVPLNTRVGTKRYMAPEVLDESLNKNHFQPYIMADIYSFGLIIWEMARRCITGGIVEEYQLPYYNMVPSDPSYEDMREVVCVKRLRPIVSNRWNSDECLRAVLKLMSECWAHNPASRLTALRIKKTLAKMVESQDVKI
The assay is described as follows: caALK3-induced SMAD1/5 phosphorylation in HEK 293T cells. Format: cell-based. The note with it: cercosporamide 1-10 µM, LDN193189 200 nM.
Text: as §1, §2

Assay [3] concerns caAlk2. The assay is described as follows: rescue of caAlk2 mRNA-induced developmental defects in zebrafish embryos. Format: in vivo. Conditions: examined at 48 hpf. On the procedure:
The pCS2+ plasmid encoding caAlk2 with a glutamine to aspartic acid substitution at position 204 was kindly donated by Jeroen Bakkers ([Smith et al., 2009]). The DNA sequences of the inserts in plasmid constructs were verified. Both plasmids were digested with NotI and mRNA was generated with SP6 RNA polymerase using a mMessage mMachine kit (Ambion). The mRNA was purified through phenol/isoamylalcohol/chloroform extraction. Zebrafish embryos were injected into the yolk at the one-cell stage with ∼1 nl of either 50 ng/µl GFP mRNA or a cocktail containing 10 ng/µl caAlk2 and 50 ng/µl GFP mRNA. […] Next, embryos were selected for fluorescence at 24 hpf and examined at 48 hpf. The phenotypes were categorized into three groups: no head; head, no eyes; head and eyes. Finally, the bar graph was generated using Prism 8.3.0 for Windows (GraphPad, San Diego, CA, USA). The presented data are a combination of two repeats of the experiment.

Method for TGFB-R1 (ALK5): IC50 values were calculated using Prism 5.04 for Windows (GraphPad, San Diego, CA, USA; www.graphpad.com). The mathematical model used was ‘Sigmoidal response (variable slope)’ with parameters ‘top’ fixed at 100% and ‘bottom’ at 0%. The fitting method used was a least-squares fit.

Take `CC(=O)C1=C(O)C=C2Oc3c(C(N)=O)c(O)cc(O)c3[C@]2(C)C1=O` [cercosporamide, Cercosporamide]: on TGFB-R1 (ALK5), the 50% inhibitory concentration (IC50) came to 290 nM. Also, on caALK2 [1], the “effect on caALK2-induced SMAD1/5 phosphorylation” value was “inhibited SMAD1/5 phosphorylation”. Further, the krox20 expression pattern entry in the assay with zebrafish embryos is recorded as “induced lateral expression of krox20”. Also, the “fraction of embryos showing the pattern” value in the assay with zebrafish embryos (one fraction per depicted pattern) is 7/15 and 6/15 and 2/15. The “effect on BMP2-induced SMAD1/5 phosphorylation” value in assay [2] is “capable of blocking SMAD1/5 phosphorylation”. For the same molecule, on caALK3, the “effect on caALK3-induced SMAD1/5 phosphorylation” value was “inhibited SMAD1/5 phosphorylation”. Besides, the “caAlk2-injected embryos that developed a head with eyes” value was 58% in the assay on caAlk2 [3] (100 nM from 2 hpf onwards) and 86% in the assay with caAlk2 [3] (200 nM from 2 hpf onwards).

In general, IC50 refers to the concentration that inhibits the measured activity by half. A low value points to inhibition by little substance.
